Key:
Type in all cases: biochemical
[1] = system: human-controlled plasma; assay: Anticoagulant activity assay: APTT clotting time
Procedure: (§1) 8.2 Methods • (1) Preparation of sample solution: Oligosaccharide compounds A1˜A8, B1˜B11 and oligosaccharide mixtures C1, D1, D2 were all dissolved in Tris-HCl buffer and diluted to the desired series of solubility. • (2) Anticoagulant activity assay: 90 μL of human-controlled plasma was added to the sample or 10 μL of the control solution, and then the clotting time (APTT and PT) was detected by the MC-4000 coagulometer according to the method described in the APTT and PT kit instructions. • (3) Coagulation factor inhibitory activity analysis: […]

[2] = system: human-controlled plasma; assay: Anticoagulant activity assay: PT clotting time
Procedure: as §1

[3] = system: plasma; assay: TT (thrombin time) clotting time
[4] = biological target: T1, intrinsic factor Xase (Homo sapiens, UniProt P00740); assay: Xase inhibitory activity assay; settings: for IC50: read-out: Drug concentration required to inhibit 50% of coagulation factor activity (IC50, ng/mL) Xase (converted)
T1 construct: 60 nM FIXa; purchased
Procedure: Xase inhibitory activity assay: Detection was performed according to kit instructions and literature methods by combining the Factor VIII and […]. Specifically, to each well of a 96-well plate, 30 μL of test solution, control solution, or Tris-HCl buffer (negative control) was added, and 30 μl of FVIII (2 IU/ml), 30 μl of R2 (60 nM FIXa, containing FIIa, PC/PS, Ca^2+) were sequentially added, mixed by shaking the plate, incubated at 37° C. for 2 min; and then 30 μL of R1 (50 nM FX, containing direct thrombin inhibitor) was added, mixed by shaking the plate, incubated at 37° C. for 1 min; and then 30 μL of R3 (FXa chromogenic substrate SXa-11, about 8.4 mM) was added. The absorbance at 405 nm (OD405) was detected with a microplate reader, continuously measuring for 7.5 min at a interval of 30 s. The Xase activity and IC50 value of Xase inhibition of the test sample were calculated based on the OD405 change value.
(§2) Data processing: The average value of OD405 detected by the duplicated well was used as the detection value of the test sample and the reference of each concentration, and the slope of the linear fit between the detected value to the time value (the change rate of the absorbance value OD405/min) indicated enzymatic activity of coagulation factor. Taking the clotting factor activity of the negative control well as 100%, coagulation factor activity (percentage) in the presence of the test sample was calculated. The coagulation factor activity in the presence of the test sample was plotted against the concentration of the test sample, and fitted according to the following formula, to calculate the IC50 value: B=(IC50)^n/{(IC50)^n+[I]^n}
(§3) in the formula, B is the coagulation factor activity (percentage) in the presence of the test sample, [I] is the concentration of the test sample, IC50 is the half inhibitory concentration (concentration of the test sample required to inhibit 50% of the activity), and n is the Hill coefficient. • (4) Effect on surface activation and platelet activity: […]

[5] = biological target: T2, FXa (Homo sapiens); assay: AT-dependent Xa inhibitory activity assay; settings: in presence of AT; for IC50: read-out: Drug concentration required to inhibit 50% of coagulation factor activity (IC50, ng/mL) Xa (AT)
T2 construct: 8 μg/mL FXa solution; purchased
Procedure: AT-dependent Xa inhibitory activity assay: Heparin […] kit was used for detection. To a 96-well plate, 30 μL of sample, control solution or Tris-HCl buffer (negative control) was added, then 30 μL of 1 IU/mL AT solution was added, mixed well and incubated at 37° C. for 1 min; and than 30 μL of 8 μg/mL FXa solution was added, mixed well and incubated at 37° C. for 1 min, then 30 μL of pre-warmed 1.25 mM Xa chromogenic substrate SXa-11 was added. OD405 was detected by a microplate reader.
as §2, §3

[6] = biological target: T3, FIIa (Homo sapiens); assay: AT-dependent IIa inhibitory activity assay; settings: in presence of AT; for IC50: read-out: Drug concentration required to inhibit 50% of coagulation factor activity (IC50, ng/mL) Ha (AT)
T3 construct: antithrombin (i.e., active coagulation factor IIa); purchased
Procedure: AT-dependent IIa inhibitory activity assay: Heparin Anti-FIIa kit was used for detection. To a 96-well plate, 30 μL of sample, control solution or Tris-HCl buffer (negative control) was added, and then 30 μL of 1 IU/mL AT solution was added, mixed well by shaking the plate and incubated at 37° C. for 2 min; 30 μL of 24 IU/mL FIIa solution was added, mixed well by shaking the plate and incubated for 2 min at 37° C., and then 30 μL of pre-warmed 1.25 mM FIIa specific chromogenic substrate CS-01 (38) was added, mixed well by shaking the plate. The OD405 was detected by a microplate reader and the IC50 value of FIIa inhibition of each sample was calculated.
as §2, §3

T1 sequence (P00740 47-191 limits assumed): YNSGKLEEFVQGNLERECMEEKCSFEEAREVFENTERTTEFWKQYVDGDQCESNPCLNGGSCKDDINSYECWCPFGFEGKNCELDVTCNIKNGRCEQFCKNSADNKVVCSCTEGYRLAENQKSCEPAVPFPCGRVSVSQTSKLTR
T1 sequence (P00740 227-461 limits assumed): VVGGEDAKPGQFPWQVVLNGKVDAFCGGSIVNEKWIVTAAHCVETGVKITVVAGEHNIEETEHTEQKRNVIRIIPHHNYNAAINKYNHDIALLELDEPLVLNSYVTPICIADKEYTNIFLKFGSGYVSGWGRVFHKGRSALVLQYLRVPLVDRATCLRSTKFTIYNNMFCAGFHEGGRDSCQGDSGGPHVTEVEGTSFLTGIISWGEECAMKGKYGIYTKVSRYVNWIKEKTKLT
T2 sequence (P01008 33-464): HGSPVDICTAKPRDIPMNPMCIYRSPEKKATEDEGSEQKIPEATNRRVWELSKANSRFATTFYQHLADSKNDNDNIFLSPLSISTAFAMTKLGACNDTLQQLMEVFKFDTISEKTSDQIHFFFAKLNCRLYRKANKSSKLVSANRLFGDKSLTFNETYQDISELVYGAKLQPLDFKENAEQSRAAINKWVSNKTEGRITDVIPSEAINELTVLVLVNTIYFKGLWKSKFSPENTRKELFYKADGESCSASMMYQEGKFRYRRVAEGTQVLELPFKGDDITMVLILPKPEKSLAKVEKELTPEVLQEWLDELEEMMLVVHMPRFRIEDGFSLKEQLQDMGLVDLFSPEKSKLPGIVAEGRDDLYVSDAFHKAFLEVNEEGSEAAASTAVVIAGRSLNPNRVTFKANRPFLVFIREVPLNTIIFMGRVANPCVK
T3 sequence (P01008 33-464): as above

Compound	Drug concentration required for multiplication of coagulation time (μg/mL) APTT [1] [µg/mL]	Drug concentration required for multiplication of coagulation time (μg/mL) PT [2]	Drug concentration required for multiplication of coagulation time (μg/mL) TT [3]	IC50 [4] [nM]	IC50 [5] [nM]	IC50 [6] [nM]	Drug concentration required to inhibit 50% of coagulation factor activity (IC50, ng/mL) Xase [4]	Drug concentration required to inhibit 50% of coagulation factor activity (IC50, ng/mL) Xa (AT) [5]	Drug concentration required to inhibit 50% of coagulation factor activity (IC50, ng/mL) Ha (AT) [6]
CC(=O)NC1C(OC2C(C(=O)O)OC(OC3C(NC(C)=O)C(OC4C(C(=O)O)OC(O)C(O)C4OC4OC(C)C(OS(=O)(=O)O)C(OS(=O)(=O)O)C4O)OC(COS(=O)(=O)O)C3OS(=O)(=O)O)C(O)C2OC2OC(C)C(OS(=O)(=O)O)C(OS(=O)(=O)O)C2O)OC(COS(=O)(=O)O)C(OS(=O)(=O)O)C1OC1OC(C(=O)O)=CC(OC2OC(C)C(OS(=O)(=O)O)C(OS(=O)(=O)O)C2O)C1O [Compound B7, L-Fuc3S4S-(α1,3)-L-ΔUA-(α1,3)-{D-GaNAc4S6S-(β1,4)-[L-Fuc3S4S-(α1,3)]-D-GlcA-(β1,4)}˜-D-GalNAc4S6S-(β1,4)-[L-Fuc3S4S-(α1,3)]-D-GlcA]	7.3	# (>128 μg/mL)	# (>128 μg/mL)	26.8	> 2300	> 2300	–	–	–
L-Fuc2S4S-(α1,3)-ΔUA-(α1,3)-{D-GaNAc4S6S-(β1,4)-[L-Fuc2S4S-(α1,3)]-D-GlcA-(β1,3)}n+1-D-GalNAc4S6S-ol [Compound A1]	60.1	# (>128 μg/mL)	# (>128 μg/mL)	–	–	–	## (>5000 ng/mL)	## (>5000 ng/mL)	## (>5000 ng/mL)
COC(=O)C1=CC(OC2OC(C)C(OS(=O)(=O)O)C(O)C2OS(=O)(=O)O)C(O)C(OC2C(NC(C)=O)C(OC3C(C(=O)OC)OC(OC4C(NC(C)=O)C(OC5C(C(=O)OC)OC(OCc6ccccc6)C(O)C5OC5OC(C)C(OS(=O)(=O)O)C(O)C5OS(=O)(=O)O)OC(COS(=O)(=O)O)C4OS(=O)(=O)O)C(O)C3OC3OC(C)C(OS(=O)(=O)O)C(O)C3OS(=O)(=O)O)OC(COS(=O)(=O)O)C2OS(=O)(=O)O)O1 [Compound B10, L-Fuc2S4S-(α1,3)-L-6-Methyl-ΔUA-(α1,3)-D-GaNAc4S6S-(β1,4)-[L-Fuc2S4S-(α1,3)]-D-6-Methyl-ΔUA-GlcA-(β1,3)-D-GalNAc4S6S-(β1,4)-[L-Fuc2S4S-(α1,3)]-D-O-1-Benzyl-6-Methyl-GlcA]	7.9	# (>128 μg/mL)	# (>128 μg/mL)	26.7	> 2170	> 2170	–	–	–
CC(=O)NC1C(OC2C(C(=O)O)OC(OC3C(NC(C)=O)C(OC4C(C(=O)O)OC(OC5C(NC(C)=O)C(OC6C(C(=O)O)OC(O)C(O)C6OC6OC(C)C(OS(=O)(=O)O)C(OS(=O)(=O)O)C6O)OC(COS(=O)(=O)O)C5OS(=O)(=O)O)C(O)C4OC4OC(C)C(OS(=O)(=O)O)C(OS(=O)(=O)O)C4O)OC(COS(=O)(=O)O)C3OS(=O)(=O)O)C(O)C2OC2OC(C)C(OS(=O)(=O)O)C(OS(=O)(=O)O)C2O)OC(COS(=O)(=O)O)C(OS(=O)(=O)O)C1OC1OC(C(=O)O)=CC(OC2OC(C)C(OS(=O)(=O)O)C(OS(=O)(=O)O)C2O)C1O [Compound B8, L-Fuc3S4S-(α1,3)-L-ΔUA-(α1,3)-{D-GaNAc4S6S-(β1,4)-[L-Fuc3S4S-(α1,3)]-D-GlcA-(β1,4)}˜-D-GalNAc4S6S-(β1,4)-[L-Fuc3S4S-(α1,3)]-D-GlcA]	5.8	# (>128 μg/mL)	# (>128 μg/mL)	9.8	> 1660	> 1660	–	–	–
COC(=O)C1=CC(OC2OC(C)C(OS(=O)(=O)O)C(O)C2OS(=O)(=O)O)C(O)C(OC2C(NC(C)=O)C(OC3C(C(=O)OC)OC(OC4C(NC(C)=O)C(OC5C(C(=O)OC)OC(OC(C(CO)NC(C)=O)C(OS(=O)(=O)O)C(O)COS(=O)(=O)O)C(O)C5OC5OC(C)C(OS(=O)(=O)O)C(O)C5OS(=O)(=O)O)OC(COS(=O)(=O)O)C4OS(=O)(=O)O)C(O)C3OC3OC(C)C(OS(=O)(=O)O)C(O)C3OS(=O)(=O)O)OC(COS(=O)(=O)O)C2OS(=O)(=O)O)O1 [Compound A6, L-Fuc2S4S-(α1,3)-[6-Methyl-ΔUA-(α1,3)]-{D-GaNAc4S6S-(β1,4)-[L-Fuc2S4S-(α1,3)-]-D-6-Methyl-GlcA-(β1,4)}2-D-GalNAc4S6S-ol]	7.5	# (>128 μg/mL)	# (>128 μg/mL)	26.5	> 1940	> 1940	–	–	–
CC(=O)NC(CO)C(OC1OC(C(=O)O)C(OC2OC(COS(=O)(=O)O)C(OS(=O)(=O)O)C(OC3OC(C(=O)O)C(OC4OC(COS(=O)(=O)O)C(OS(=O)(=O)O)C(OC5OC(C(=O)O)C(OC6OC(COS(=O)(=O)O)C(OS(=O)(=O)O)C(OC7OC(C(=O)O)C(OC8OC(COS(=O)(=O)O)C(OS(=O)(=O)O)C(OC9OC(C(=O)O)C(OC%10OC(COS(=O)(=O)O)C(OS(=O)(=O)O)C(OC%11OC(C(=O)O)=CC(OC%12OC(C)C(OS(=O)(=O)O)C(O)C%12OS(=O)(=O)O)C%11O)C%10NC(C)=O)C(OC%10OC(C)C(OS(=O)(=O)O)C(O)C%10OS(=O)(=O)O)C9O)C8NC(C)=O)C(OC8OC(C)C(OS(=O)(=O)O)C(O)C8OS(=O)(=O)O)C7O)C6NC(C)=O)C(OC6OC(C)C(OS(=O)(=O)O)C(O)C6OS(=O)(=O)O)C5O)C4NC(C)=O)C(OC4OC(C)C(OS(=O)(=O)O)C(O)C4OS(=O)(=O)O)C3O)C2NC(C)=O)C(OC2OC(C)C(OS(=O)(=O)O)C(O)C2OS(=O)(=O)O)C1O)C(OS(=O)(=O)O)C(O)COS(=O)(=O)O [Compound A5, L-Fuc2S4S-(α1,3)-ΔUA-(α1,3)-{D-GaNAc4S6S-(β1,4)-[L-Fuc2S4S-(α1,3)]-D-GlcA-(β1,3)}n+1-D-GalNAc4S6S-ol]	3.9	# (>128 μg/mL)	# (>128 μg/mL)	4.65	> 985	> 985	–	–	–
CC(=O)NC(CO)C(OC1OC(C(=O)O)C(OC2OC(COS(=O)(=O)O)C(OS(=O)(=O)O)C(OC3OC(C(=O)O)C(OC4OC(COS(=O)(=O)O)C(OS(=O)(=O)O)C(OC5OC(C(=O)O)C(OC6OC(COS(=O)(=O)O)C(OS(=O)(=O)O)C(OC7OC(C(=O)O)=CC(OC8OC(C)C(OS(=O)(=O)O)C(O)C8OS(=O)(=O)O)C7O)C6NC(C)=O)C(OC6OC(C)C(OS(=O)(=O)O)C(O)C6OS(=O)(=O)O)C5O)C4NC(C)=O)C(OC4OC(C)C(OS(=O)(=O)O)C(O)C4OS(=O)(=O)O)C3O)C2NC(C)=O)C(OC2OC(C)C(OS(=O)(=O)O)C(O)C2OS(=O)(=O)O)C1O)C(OS(=O)(=O)O)C(O)COS(=O)(=O)O [Compound A3, L-Fuc2S4S-(α1,3)-ΔUA-(α1,3)-{D-GaNAc4S6S-(β1,4)-[L-Fuc2S4S-(α1,3)]-D-GlcA-(β1,3)}n+1-D-GalNAc4S6S-ol]	6.8	# (>128 μg/mL)	# (>128 μg/mL)	11.8	> 1480	> 1480	–	–	–

Source: patent US12280072B2, “Oligosaccharide compound for inhibiting intrinsic coagulation factor X-enzyme complex, and preparation method therefor and uses thereof” (Jiuzhitang Co., Ltd., priority 2017, dated 2025)
